Literature values, collected in US20080124386A1, “APOPTOSIS-MIMICKING SYNTHETIC ENTITIES AND USE THEREOF IN MEDICAL TREATMENT” (Vasogen Ireland Limited, priority 2000, published 2008).

Assays:
spatial memory = conditions: oral, 50 mg/day; compared with placebo
Alzheimer's disease = conditions: oral, 300 mg/day; compared with placebo

Substance: phosphatidylserine [PS]
- spatial memory in animal models (spatial memory): statistically significant improvements
- treatment of Alzheimer's disease in humans (Alzheimer's disease): statistically significant improvements
